As usually defined, the GI50 is the concentration giving 50% growth inhibition.

Test systems include HCT-15; NCI-H23; T47D; OVCAR-5; U-251; UACC-257; SNB-19; SF-295; M14; EKVX; RPMI-8226; NCI-H460; HL-60; KM12; SR; MDA-MB-231; HCC 2998; ACHN; OVCAR-4.
Experiment in all cases: DTP human tumour cell line panel, 48 h

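Method: 48-hour compound exposure of cells in 96-well plates, five concentrations, linear interpolation of endpoints. GI50 marks 50% less growth.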 Calls of active or inactive are those of the source. No stated cut-off is given here; in the data, active = GI50 up to about 1.1 µM and inactive = higher.

`O=C(N/N=C\c1ccc([N+](=O)[O-])cc1)c1ccccc1Nc1ccccc1C(=O)N/N=C/c1ccc([N+](=O)[O-])cc1`: the 50% growth inhibitory concentration (GI50) in the assay on HCT-15 was greater than 100 µM; in the assay with NCI-H23, > 100 µM (inactive); in the assay on T47D, > 100 µM (inactive); in the assay on OVCAR-5, 76.4 µM (inactive); in the assay with U-251 it was > 100 µM (inactive); in the assay with UACC-257, > 100 µM (inactive). Also, the GI50 with SNB-19 was > 100 µM (inactive); with SF-295, > 100 µM (inactive); with M14, 27.3 µM (inactive); in the assay on EKVX, > 100 µM (inactive); with RPMI-8226, > 100 µM (inactive); with NCI-H460, > 100 µM (inactive). In addition, the GI50 in the assay with HL-60 is 89.7 µM (inactive); in the assay with KM12 it was > 100 µM (inactive); with SR, 79.3 µM (inactive); in the assay with MDA-MB-231 it was 25.8 µM (inactive); in the assay on HCC 2998, > 100 µM (inactive); in the assay on ACHN, > 100 µM (inactive). The GI50 in the assay with OVCAR-4 is > 100 µM (inactive).
For `C=C(Br)C(Cl)(CBr)CCC(Br)C(C)(C)Cl` (stereo not given), the GI50 in the assay on NCI-H23, with T47D, in the assay with OVCAR-5, in the assay on U-251, in the assay with SNB-19 and with SF-295 was > 10 µM (inactive) throughout. Moreover, the GI50 is > 10 µM (inactive) in the assay on M14; > 10 µM (inactive) with EKVX; 9.2 µM (inactive) in the assay with RPMI-8226; > 10 µM (inactive) in the assay with HL-60; > 10 µM (inactive) in the assay with KM12; > 10 µM (inactive) in the assay with SR. The GI50 with MDA-MB-231, in the assay with HCC 2998, in the assay with ACHN and in the assay on OVCAR-4 was > 10 µM (inactive) each time.
In the case of `CC1(C)C(c2ccccc2)=[N+]([O-])C(C)(C)N1O`, the concentration for 50% growth inhibition (GI50) was greater than 10 µM in the assay on HCT-15; > 10 µM (inactive) in the assay with NCI-H23; > 10 µM (inactive) with T47D; > 10 µM (inactive) with OVCAR-5; > 10 µM (inactive) with U-251; > 10 µM (inactive) in the assay on UACC-257. Moreover, the GI50 in the assay with SNB-19, in the assay with SF-295, in the assay on M14, in the assay on EKVX, with RPMI-8226 and in the assay on NCI-H460 was > 10 µM (inactive) each time. Besides, the GI50 with HL-60, in the assay on KM12, in the assay on SR, in the assay with MDA-MB-231, with HCC 2998 and in the assay with ACHN was > 10 µM (inactive) in each case. In the assay on OVCAR-4, the GI50 is > 10 µM (inactive).
As for `COc1ccc(/[N+]([O-])=C/c2ccccc2OC(=S)S)cc1`, the 50% growth inhibitory concentration (GI50) in the assay with HCT-15 was 30.6 µM; with NCI-H23, 27.7 µM (inactive); in the assay with T47D, 41.8 µM (inactive); in the assay on OVCAR-5, 35.9 µM (inactive); in the assay on U-251, 46.6 µM (inactive); in the assay on UACC-257, 29 µM (inactive). Besides, the GI50 in the assay with SNB-19 is 51.3 µM (inactive); with SF-295, 33.8 µM (inactive); with M14, 25.5 µM (inactive); with EKVX it was 40.2 µM (inactive); with RPMI-8226 it was 25.6 µM (inactive); in the assay on NCI-H460 it was 45.1 µM (inactive). Moreover, the GI50 in the assay on HL-60 was 24.3 µM (inactive); with KM12, 31 µM (inactive); in the assay on SR, 28.4 µM (inactive); in the assay on MDA-MB-231, 56.2 µM (inactive); in the assay with HCC 2998, 44.5 µM (inactive); in the assay on ACHN, 38.5 µM (inactive). The GI50 with OVCAR-4 was 28.4 µM (inactive).
Take `COC(=O)[C@H]1C=C[C@H](OC2OC(COC(C)=O)C(OC(C)=O)C(OC(C)=O)C2OC(C)=O)n2c(=O)n(-c3ccccc3)c(=O)n21` (stereo not given in full): the concentration for 50% growth inhibition (GI50) in the assay with HCT-15 was 1.41 µM; in the assay on NCI-H23, 4.99 µM (inactive); with T47D, 3.48 µM (inactive); with OVCAR-5, 9.18 µM (inactive); in the assay on U-251, 8.75 µM (inactive); in the assay on UACC-257 it was 7.52 µM (inactive). Moreover, the GI50 in the assay with SNB-19 was 16.7 µM (inactive); in the assay on SF-295, 13.1 µM (inactive); in the assay with M14, 2.7 µM (inactive); with EKVX, 2.59 µM (inactive); with RPMI-8226 it was 1.66 µM (inactive); with NCI-H460, 2.92 µM (inactive). For the same compound, the GI50 was 0.406 µM (active) with HL-60; 11 µM (inactive) in the assay on KM12; 2.03 µM (inactive) in the assay with SR; 6.97 µM (inactive) with MDA-MB-231; 2.23 µM (inactive) in the assay on HCC 2998; 1.66 µM (inactive) in the assay with ACHN. For the same compound, in the assay on OVCAR-4, the GI50 is 2.87 µM (inactive).
For the compound `CCN(CC)CCC(=O)OC1C(C)=CC(C)C(=O)CC(C(C)CC2CCC(O)C(OC)C2)OC(=O)C2CCCCN2C(=O)C(=O)[C@@]2(O)OC(CCC2C)CC(OC)\C(C)=C/C=C/C=C/C(C)CC(C)C(=O)C1OC` (stereo not given in full), the GI50 in the assay on HCT-15 was 1.75 µM; with NCI-H23, 11.7 µM (inactive); with T47D, < 0.01 µM (active); in the assay on OVCAR-5 it was 10.3 µM (inactive); with U-251 it was 10.4 µM (inactive); in the assay with UACC-257, 13.3 µM (inactive). The GI50 in the assay with SNB-19 was 4.34 µM (inactive); in the assay on SF-295 it was < 0.01 µM (active); in the assay with M14, 10.4 µM (inactive); with EKVX, < 0.01 µM (active); in the assay on RPMI-8226, 0.415 µM (active); with HL-60 it was 1.96 µM (inactive). The GI50 was 7.98 µM (inactive) in the assay on KM12; < 0.01 µM (active) with SR; 12.8 µM (inactive) with MDA-MB-231; 1.87 µM (inactive) in the assay on HCC 2998; 1.05 µM (active) in the assay with ACHN; < 0.01 µM (active) in the assay with OVCAR-4.
For `Nc1ccc(-c2nc3ccccc3s2)cc1CO`, the GI50 in the assay with HCT-15 was 61.8 µM; with NCI-H23 it was 60.5 µM (inactive); with T47D, 33.2 µM (inactive); in the assay on U-251 it was > 76.4 µM (inactive); with UACC-257, > 87.7 µM (inactive); with SNB-19, 50.6 µM (inactive). The GI50 is 36.5 µM (inactive) in the assay on SF-295; 64.6 µM (inactive) in the assay with M14; 7.46 µM (inactive) in the assay with EKVX; 49.1 µM (inactive) in the assay with RPMI-8226; 68.4 µM (inactive) in the assay with NCI-H460; 39 µM (inactive) in the assay with HL-60. Besides, the GI50 in the assay with KM12 was 41.7 µM (inactive); with SR, > 84.3 µM (inactive); in the assay with MDA-MB-231 it was > 70 µM (inactive); in the assay with HCC 2998, > 100 µM (inactive); in the assay with ACHN, 13.5 µM (inactive); in the assay with OVCAR-4 it was > 39.2 µM (inactive).
As for `CC1C2CC(CC23OCC(CCl)O3)C1(C)C` (stereo not given), the GI50 was greater than 100 µM with HCT-15; > 100 µM (inactive) in the assay on NCI-H23; > 100 µM (inactive) in the assay with T47D; > 100 µM (inactive) with UACC-257; > 100 µM (inactive) with SNB-19; > 100 µM (inactive) in the assay on SF-295. In addition, the GI50 in the assay with M14, in the assay with EKVX, with RPMI-8226, in the assay with NCI-H460, with HL-60 and in the assay on KM12 was > 100 µM (inactive) each time. The GI50 in the assay with SR, in the assay with MDA-MB-231, with HCC 2998, in the assay on ACHN and in the assay with OVCAR-4 was > 100 µM (inactive) each time.

For the origin of these results see ChEMBL document CHEMBL1201862, “PubChem BioAssay data set” (2004).
